Assay results from patent US20200347136A1, “CONSTRAINED CYCLIC PEPTIDES AS INHIBITORS OF THE CD2:CD58 PROTEIN-PROTEIN INTERACTION FOR TREATMENT OF DISEASES AND AUTOIMMUNE DISORDERS” (Board of Supervisors for the University of Louisiana System, priority 2019, published 2020).
Entries after “also recorded” stand apart in the source; their conditions may differ.

Columns and labels:
[1] = biological target: T1, HER2 ECD protein (domains I-IV) (Homo sapiens, UniProt P04626); test: SPR binding to immobilized HER2 ECD; settings: analyte over immobilized HER2 ECD
T1 construct: immobilizing HER2 ECD protein (domains I-IV, 620 amino acids)
Experimental: Binding affinities were obtained by global fitting analysis of the titration curve to the 1:1 Langmuir interaction model, and the Kd value was calculated.

[2] = test system: phosphorylation of HER2 and Akt; test: Western blot of HER2 and Akt phosphorylation, A549 cells; assay type: cell-based
Experimental: Binding to ECD protein at different concentrations. Kinetics of association and dissociation are shown. Inset saturation curve for binding. […] EGFR was immobilized on CM5-chip and HER2 was added as analyte. Binding of HER2 to EGFR is shown in red. […] Control represents cells without the peptide and without one of the antibodies (B & E). […] Control represents cells without the peptide and without one of the antibodies (F). […] Nucleus was stained with DAPI. III) Quantification of PLA assay fluorescence intensity. 3-6 different fields were chosen, and intensity of red fluorescence was measured using ImageJ software. […] Scale 20 μm. Magnification 40×. *p<0.05, ** p<0.01. Mean±SEM. […] The visualization of GAPDH was used to ensure equal sample loading in each lane. […] II) Quantification of Western blot images using densitometry. *p<0.05 *** P<0.001. Mean±SEM.
The phosphorylation of HER2 was measured by the p-HER2 monoclonal antibody. […] Lapatinib, an EGFR and HER2 kinase dual inhibitor were used as a positive control.

[3] = test system: A549 cells; settings: read-out: IC50 A549 (HER2+); antiproliferative activity
Experimental: (§1) Antiproliferative activity of grafted cyclic peptides. Antiproliferative activity of the designed grafted peptides was evaluated in different HER2-overexpressing cancer cell lines as well as HER2 negative cancer cell lines.
(§2) Table 1. […] Single letter amino acid code was used for peptide sequence. Lower case letters refer to D amino acids and capital letters refer to L amino acids. Chirality of Anapa was indicated with R and S configuration in italics. Antiproliferative activity of peptides in cancer cell lines are given as IC50 in μM. Disulfide bonds between the cysteines are underlined.

[4] = test system: MCF-7 cells; settings: read-out: IC50 MCF-7 (HER2−); antiproliferative activity
Experimental: as §1, §2

[5] = test system: BT-474 cells; settings: read-out: IC50 BT-474 (HER2+); antiproliferative activity
Experimental: as §1, §2

[6] = test system: Calu-3 cells; settings: read-out: IC50 Calu-3 (HER2+); antiproliferative activity
Experimental: as §1, §2

[7] = test system: T cells (splenocytes); test: immunogenicity, flow cytometry T-cell proliferation (Ki-67) in primed BALB/c mice; assay type: in vivo; settings: BALB/c mice primed 6 mg/kg; splenocytes with 5 μM peptide, 48 h
Experimental: SFTI-G5 is not immunogenic in mice. Molecules that are not endogenous to the body can trigger cellular responses when administered. […] Ki-67 is a proliferation marker of nuclear protein and has been used to measure specific T-cell responses. […] The animals were sacrificed on the 13th day, and splenocytes were harvested and cultured in vitro from both control and primed groups, either in the presence or absence of the peptide. Concanavalin A (5 μg/mL), an antigen-independent mitogen known to induce T-cell proliferation, was used as a positive control.

[8] = test system: Calu-3 xenograft tumors; test: Calu-3 xenograft model of lung cancer in nude mice; assay type: in vivo
Experimental: 5×10^6 Calu-3 cells suspended in serum-free medium were subcutaneously inoculated in left flank region of mice to induce lung cancer (Foxn1-nude). Peptide (8 mg/kg) was administered via intratumoral injection three times a week after 10 days, Pertuzumab was injected with a loading dose of 12 mg/kg and then 6 mg/kg as maintenance dose intraperitonially once a week, Trastuzumab and pertuzumab combination was injected at a loading dose of 12 mg/kg and then 6 mg/kg as maintenance dose once a week. […] For comparison, pertuzumab (up triangle, blue) and trastuzumab and pertuzumab combination (down triangle, red) also shown (with standard errors for n=6). […] C) PPI inhibition assessed by PLA on tumor tissue sample. […] Tumor sections were homogenized, and protein was extracted and subjected to Western blot. […] (** p<0.01). Mean±SEM.
HER2 dimerization inhibitors such as pertuzumab and trastuzumab and pertuzumab combinations were also administered as control groups (FIG. 11A). […] During the course of the experiment, the tumor size in the control xenograft group without any treatment continued to increase, reaching a diameter of ˜9 mm in 28 days (FIG. 11B).
To evaluate the phosphorylation of HER2 protein, Western blot analysis was performed on frozen tumor samples.

[9] = test system: MCF-10A cells; test: Cell Titer-Glo antiproliferative assay, MCF-10A; assay type: cell-based; settings: antiproliferative activity, non-cancerous breast epithelial cell line
Experimental: as §1, §2

[10] = disulfide bond stability, CD spectrum with dithiothreitol; assay type: physicochemical; settings: presence versus absence of dithiothreitol
[11] = test system: A549 Red-FLuc lung tumors; test: experimental metastasis model of lung cancer, A549 Red-FLuc cells
[12] = thermal stability by circular dichroism and MALDI-TOF; assay type: physicochemical; settings: CD and mass spectrum, 25-75° C., in solution
Experimental: To confirm further, a mass spectrum of SFTI-G5 was obtained from the solution used to record the CD spectrum at different temperatures. Freeze-dried samples of different temperatures were analyzed via MALDI-TOF mass spectrometry.

T1 sequence (P04626 23-652 limits assumed): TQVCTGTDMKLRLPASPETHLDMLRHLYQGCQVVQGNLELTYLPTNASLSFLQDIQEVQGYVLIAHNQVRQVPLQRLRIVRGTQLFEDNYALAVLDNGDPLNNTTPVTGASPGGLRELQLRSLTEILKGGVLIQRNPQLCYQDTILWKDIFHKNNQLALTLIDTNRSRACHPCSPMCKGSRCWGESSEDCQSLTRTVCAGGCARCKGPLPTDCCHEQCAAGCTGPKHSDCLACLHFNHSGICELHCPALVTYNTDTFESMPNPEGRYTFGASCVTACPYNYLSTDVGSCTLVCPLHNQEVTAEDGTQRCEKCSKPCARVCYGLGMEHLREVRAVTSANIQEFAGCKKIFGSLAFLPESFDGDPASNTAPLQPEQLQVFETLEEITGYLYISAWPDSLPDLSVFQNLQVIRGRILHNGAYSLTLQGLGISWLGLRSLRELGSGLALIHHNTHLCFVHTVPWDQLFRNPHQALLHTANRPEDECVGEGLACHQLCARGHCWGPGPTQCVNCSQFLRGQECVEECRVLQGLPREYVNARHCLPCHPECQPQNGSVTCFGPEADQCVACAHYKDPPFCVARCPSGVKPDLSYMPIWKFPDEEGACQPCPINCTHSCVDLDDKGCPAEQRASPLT

For `NCCCC[C@H](N)C(=O)NC(CC(=O)N[C@@H](Cc1ccccc1)C(=O)O)c1cccc2ccccc12` (stereo partly drawn) [Control, H2N-K(X)F-OH], the “SPR response on HER2 ECD” value [1] was “no SPR response was recorded”.

With `CC[C@H](C)[C@@H]1NC(=O)[C@H](CCCNC(=N)N)NC(=O)C[C@@H](c2cccc3ccccc23)NC(=O)[C@@H]2CSSC[C@H](NC(=O)C[C@@H](c3cccc4ccccc34)NC(=O)[C@H](CCCNC(=N)N)NC(=O)[C@@H]3CCCN3C(=O)[C@@H]3CCCN3C1=O)C(=O)N[C@@H](Cc1ccccc1)C(=O)N1CCC[C@H]1C(=O)N[C@@H](CC(=O)O)C(=O)N[C@@H](CC(=O)O)C(=O)N[C@@H](Cc1ccccc1)C(=O)N2` [SFTI-G5, Cyclo(C(S-X)RIPPR(S-X)CFPDDF)] the “total HER2 protein levels” value [2] was “no significant change in total HER2 protein levels”, the “phosphorylation of Akt” value ([2]; 1 μM, 40 h, vs control) was “significantly inhibited the phosphorylation of Akt” and the “phosphorylation of HER2 kinase” value ([2]; 1 μM, 40 h, vs control) was “significantly decreases the phosphorylation of HER2 kinase”. For the same molecule, the IC50 [3] was 369 nM, the IC50 [4] was 25600 ± 1460 nM and the IC50 [5] was 280 nM. The IC50 [6] was 73 nM, the “immune response: Ki-67 expression in CD3+ subsets” value [7] was “did not show any significant immune response; also recorded: non-immunogenic” and the tumor growth ([8]; Calu-3 xenograft, SFTI-G5 8 mg/kg intratumoral thrice a week, antibodies 12 then 6 mg/kg once a week) was “delay in tumor growth that was significant compared to control; also recorded: delayed tumor growth”. For the same molecule, the “tolerability, body weight and clinical observations” value ([8]; SFTI-G5 monotherapy dosing schedule) was “well-tolerated”, the “EGFR:HER2 dimerization in tumor sections (PLA)” value ([8]; vs control tumor sample) was “markedly diminished signals from dimerization” and the “HER2 phosphorylation in tumor samples (Western blot)” value ([8]; vs vehicle treatment) was “significant inhibition of HER2 phosphorylation”. The IC50 [9] was over 50000 nM, the “CD spectrum on addition of DTT” value [10] was “sharp change in CD spectrum” and the “rate of tumor growth, total flux (p/s)” value ([11]; 6 mg/kg i.v. twice a week, vs vehicle) was “decreased; also recorded: significant reduction in tumor growth”. For the same molecule, the “H&E histology of lungs: enlarged hyperchromatic nuclei, eosinophilic cytoplasm” value ([11]; vs vehicle control) was “there were less” and the thermal stability [12] was “stable at 75 °C; also recorded: stable up to 75 °C”.
